Consider 27 compounds from ChEMBL document CHEMBL5113522, “Discovery of CH7057288 as an Orally Bioavailable, Selective, and Potent pan-TRK Inhibitor” (J Med Chem, 2022).

The target of data set [1] is CYP3A4 (Homo sapiens, UniProt P08684). Nature of the data set: Induction of CYP3A4 in human hepatocytes assessed as fold induction at 1 uM using testosterone as substrate preincubated with replacement of fresh medium containing compound every 24 hrs for 72 hrs followed by substrate addition and measured after 1 hr by LC-MS/MS analysis relative to control. The class given is ADME, cell-based, Hepatocyte. The conditions noted are these: probe testosterone, time 73 hrs, read-out: FC.
Sequence of CYP3A4 (P08684 whole entry): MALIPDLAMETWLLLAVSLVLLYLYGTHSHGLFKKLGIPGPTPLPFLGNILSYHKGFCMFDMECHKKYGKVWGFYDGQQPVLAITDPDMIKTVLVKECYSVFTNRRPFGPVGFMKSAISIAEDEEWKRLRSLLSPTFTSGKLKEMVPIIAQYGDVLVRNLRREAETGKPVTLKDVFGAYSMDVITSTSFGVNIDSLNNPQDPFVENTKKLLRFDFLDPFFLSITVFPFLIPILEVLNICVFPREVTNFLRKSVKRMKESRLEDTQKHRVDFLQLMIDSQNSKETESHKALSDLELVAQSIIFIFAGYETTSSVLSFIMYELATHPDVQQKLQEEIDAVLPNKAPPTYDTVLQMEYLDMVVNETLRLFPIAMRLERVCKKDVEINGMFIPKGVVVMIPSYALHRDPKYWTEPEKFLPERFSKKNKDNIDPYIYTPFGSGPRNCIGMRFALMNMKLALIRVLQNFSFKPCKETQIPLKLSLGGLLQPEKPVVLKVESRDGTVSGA

Data set [2] addresses High affinity nerve growth factor receptor (Homo sapiens, UniProt P04629). In words: Inhibition of TRKA (unknown origin).
Data set [3] concerns the target Vascular endothelial growth factor receptor 2 (Homo sapiens, UniProt P35968). In words: Inhibition of KDR (unknown origin).
Data set [4] has as its target Tyrosine-protein kinase Lck (Homo sapiens, UniProt P06239). Nature of the data set: Inhibition of LCK (unknown origin).
Data set [5] deals with NIH3T3. In words: Antiproliferative activity against […] NIH3T3 cells expressing MPRIP-NTRK1 assessed as cell growth inhibition incubated for 4 to 7 days by CellTiter-Glo Luminescent Cell Viability Assay. It is filed as functional, cell-based. The following applies: Mus musculus. In general terms: ATP-based viability assays read luminescence as a measure of living cells.

SMILES strings stand for the structures.

Sequence of Vascular endothelial growth factor receptor 2 (P35968 whole entry): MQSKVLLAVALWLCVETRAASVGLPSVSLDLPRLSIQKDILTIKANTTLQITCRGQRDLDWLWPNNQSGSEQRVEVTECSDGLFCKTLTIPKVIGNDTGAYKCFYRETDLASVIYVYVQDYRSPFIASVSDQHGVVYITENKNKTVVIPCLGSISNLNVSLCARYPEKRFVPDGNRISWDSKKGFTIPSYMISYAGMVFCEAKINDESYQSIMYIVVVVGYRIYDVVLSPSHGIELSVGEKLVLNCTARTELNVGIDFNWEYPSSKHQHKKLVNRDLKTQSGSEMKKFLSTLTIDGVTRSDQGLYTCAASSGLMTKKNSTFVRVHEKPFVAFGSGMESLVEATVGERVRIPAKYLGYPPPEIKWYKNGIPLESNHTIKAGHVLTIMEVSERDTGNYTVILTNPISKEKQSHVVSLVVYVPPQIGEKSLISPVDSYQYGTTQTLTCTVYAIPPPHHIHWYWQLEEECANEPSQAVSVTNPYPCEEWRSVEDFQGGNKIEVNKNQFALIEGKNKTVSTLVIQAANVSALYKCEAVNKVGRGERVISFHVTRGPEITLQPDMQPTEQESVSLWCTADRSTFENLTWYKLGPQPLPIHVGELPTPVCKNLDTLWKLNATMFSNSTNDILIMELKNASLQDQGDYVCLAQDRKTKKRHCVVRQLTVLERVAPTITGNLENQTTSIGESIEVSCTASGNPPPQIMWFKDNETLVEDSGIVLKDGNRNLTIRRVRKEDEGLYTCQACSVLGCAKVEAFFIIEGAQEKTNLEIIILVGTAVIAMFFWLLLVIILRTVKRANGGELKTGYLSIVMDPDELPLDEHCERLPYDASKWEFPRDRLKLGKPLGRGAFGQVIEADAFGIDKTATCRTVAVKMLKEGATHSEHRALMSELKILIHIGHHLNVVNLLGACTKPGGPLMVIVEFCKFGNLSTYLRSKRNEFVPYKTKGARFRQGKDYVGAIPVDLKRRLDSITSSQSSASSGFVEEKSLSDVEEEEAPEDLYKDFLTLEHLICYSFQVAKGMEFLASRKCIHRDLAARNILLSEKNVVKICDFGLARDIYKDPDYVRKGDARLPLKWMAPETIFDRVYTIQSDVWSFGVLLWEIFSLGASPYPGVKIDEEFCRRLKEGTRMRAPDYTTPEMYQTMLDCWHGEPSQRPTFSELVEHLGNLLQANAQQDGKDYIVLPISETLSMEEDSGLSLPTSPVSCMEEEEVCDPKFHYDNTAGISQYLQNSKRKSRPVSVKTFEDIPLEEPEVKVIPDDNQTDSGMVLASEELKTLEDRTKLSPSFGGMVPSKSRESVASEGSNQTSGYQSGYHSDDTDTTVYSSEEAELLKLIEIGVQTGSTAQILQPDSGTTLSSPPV
Sequence of Tyrosine-protein kinase Lck (P06239 whole entry): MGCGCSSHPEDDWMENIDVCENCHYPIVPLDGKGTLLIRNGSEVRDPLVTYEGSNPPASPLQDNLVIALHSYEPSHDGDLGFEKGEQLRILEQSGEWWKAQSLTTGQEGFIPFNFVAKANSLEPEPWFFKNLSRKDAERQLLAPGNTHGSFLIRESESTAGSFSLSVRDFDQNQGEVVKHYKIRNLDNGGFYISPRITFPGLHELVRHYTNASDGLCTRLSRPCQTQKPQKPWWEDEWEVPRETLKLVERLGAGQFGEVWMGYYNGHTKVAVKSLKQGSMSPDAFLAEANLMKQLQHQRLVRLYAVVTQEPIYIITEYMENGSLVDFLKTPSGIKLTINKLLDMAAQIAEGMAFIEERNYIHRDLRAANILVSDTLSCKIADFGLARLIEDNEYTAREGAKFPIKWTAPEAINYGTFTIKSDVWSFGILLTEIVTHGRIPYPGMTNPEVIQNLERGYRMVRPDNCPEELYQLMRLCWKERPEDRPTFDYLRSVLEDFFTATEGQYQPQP
Sequence of High affinity nerve growth factor receptor (P04629 whole entry): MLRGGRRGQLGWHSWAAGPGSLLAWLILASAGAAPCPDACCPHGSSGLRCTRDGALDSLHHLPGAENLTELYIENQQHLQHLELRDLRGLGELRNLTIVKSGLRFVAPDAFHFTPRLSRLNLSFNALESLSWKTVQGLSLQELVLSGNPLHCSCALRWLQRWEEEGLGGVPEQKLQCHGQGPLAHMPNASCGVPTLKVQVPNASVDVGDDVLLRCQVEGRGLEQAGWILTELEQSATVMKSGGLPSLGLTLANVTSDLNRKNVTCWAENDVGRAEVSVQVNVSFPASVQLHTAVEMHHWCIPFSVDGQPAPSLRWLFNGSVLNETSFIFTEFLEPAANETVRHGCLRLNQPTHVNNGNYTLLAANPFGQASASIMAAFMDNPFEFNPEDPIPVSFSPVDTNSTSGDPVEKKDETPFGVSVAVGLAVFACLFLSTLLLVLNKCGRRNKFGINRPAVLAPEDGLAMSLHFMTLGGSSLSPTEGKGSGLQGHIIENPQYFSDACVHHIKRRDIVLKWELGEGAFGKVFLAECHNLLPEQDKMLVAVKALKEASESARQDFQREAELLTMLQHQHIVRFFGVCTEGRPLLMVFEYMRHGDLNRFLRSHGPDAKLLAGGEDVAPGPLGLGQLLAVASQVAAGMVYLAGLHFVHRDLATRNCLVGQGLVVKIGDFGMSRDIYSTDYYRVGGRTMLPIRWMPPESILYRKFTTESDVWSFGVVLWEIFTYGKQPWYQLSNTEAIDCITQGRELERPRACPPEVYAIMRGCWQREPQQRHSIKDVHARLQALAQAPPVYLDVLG

Consider `CC1(C)c2cc(N3CC4(COC4)C3)ccc2C(=O)c2c1oc1cc(C#Cc3cc(OCC4CC4)ccn3)ccc21`, for which the fold induction at 1 h, 1 µM in data set [1] turned out to be 2.6. Further, the IC50 in data set [2] was determined as 0.003 µM; in data set [3], 0.43 µM; in data set [4], 0.086 µM; in data set [5], 0.069 µM.
`CC1(C)c2cc(OCCN3CCCOCC3)ccc2C(=O)c2c1oc1cc(C#Cc3cc(OCC4CC4)ccn3)ccc21`: the fold induction at 1 h, 1 µM in data set [1] was found to be 6.1. The IC50 worked out at 0.0028 µM in data set [2], 0.96 µM in data set [3], 0.096 µM in data set [4] and 0.08 µM in data set [5].
On to `CCCc1cc(C(=O)NC(C)(C)C)cc(C#Cc2ccc3c4c(oc3c2)C(C)(C)c2cc(NS(C)(=O)=O)ccc2C4=O)n1`, for which the fold induction at 1 h, 1 µM in data set [1] turned out to be 0.9. Besides, the IC50 was 0.0012 µM in data set [2], over 1 µM in data set [3], 0.096 µM in data set [4] and 0.012 µM in data set [5].
With `CC1(C)c2cc(OCCN3CCOCC3)ccc2C(=O)c2c1oc1cc(C#Cc3cc(OCC(F)(F)F)ccn3)ccc21`, in data set [1], the fold induction at 1 h, 1 µM was determined as 6.3. In addition, the IC50 in data set [2] was 0.0033 µM; in data set [3], over 1 µM; in data set [4], 0.33 µM; in data set [5] it was 0.021 µM.
With `CC(C)(C)NC(=O)c1ccnc(C#Cc2ccc3c4c(oc3c2)C(C)(C)c2cc(NS(C)(=O)=O)ccc2C4=O)c1`, the fold induction at 1 h, 1 µM in data set [1] is 4.7. Moreover, the IC50 stood at 0.0007 µM in data set [2], 0.6 µM in data set [3], 0.13 µM in data set [4] and 0.014 µM in data set [5].
On to `CC1(C)c2cc(OCCN3CCOCC3)ccc2C(=O)c2c1oc1cc(C#Cc3cc(OCC4(CO)CC4)ccn3)ccc21`, for which the fold induction at 1 h, 1 µM in data set [1] was 7.9. Further, the IC50 in data set [2] was determined as 0.0033 µM; in data set [3], 0.96 µM; in data set [4] it was 0.37 µM; in data set [5] it was 0.184 µM.
On to `CC(C)(C)NC(=O)c1cc(C#N)nc(C#Cc2ccc3c4c(oc3c2)C(C)(C)c2cc(NS(C)(=O)=O)ccc2C4=O)c1`, for which, in data set [1], the fold induction at 1 h, 1 µM came to 11. For the same compound, the IC50 was 0.0028 µM in data set [2], over 1 µM in data set [3], 0.058 µM in data set [4] and 0.067 µM in data set [5].
Turning to `Cc1cnc(C#Cc2ccc3c4c(oc3c2)C(C)(C)c2cc(NS(C)(=O)=O)ccc2C4=O)cc1C(=O)NC(C)(C)C`, the fold induction at 1 h, 1 µM in data set [1] was 2.6. For the same compound, the IC50 in data set [2] is 0.0038 µM; in data set [3], over 1 µM; in data set [4], 0.76 µM; in data set [5] it was 0.065 µM.
As to `CCc1cc(C(=O)NC(C)(C)C)cc(C#Cc2ccc3c4c(oc3c2)C(C)(C)c2cc(NS(C)(=O)=O)ccc2C4=O)n1`, the fold induction at 1 h, 1 µM in data set [1] worked out at 2.8. The 50% inhibitory concentration (IC50) in data set [2] was 0.0007 µM; in data set [3], over 1 µM; in data set [4], 0.32 µM; in data set [5] it was 0.012 µM.
`CC(C)(C)NC(=O)c1cc(C#Cc2ccc3c4c(oc3c2)C(C)(C)c2cc(NS(C)(=O)=O)ccc2C4=O)nc(C(F)(F)F)c1`: in data set [1], the fold induction at 1 h, 1 µM worked out at 2.5. The half-inhibitory concentration (IC50) in data set [2] is 0.0026 µM; in data set [3], over 1 µM; in data set [4], 0.13 µM; in data set [5] it was 0.055 µM.
In the case of `CC1(C)c2cc(OCCN3C4CCC3COC4)ccc2C(=O)c2c1oc1cc(C#Cc3cc(OCC4CC4)ccn3)ccc21`, in data set [1], the fold induction at 1 h, 1 µM is 6.7. The IC50 in data set [2] was 0.018 µM; in data set [3], over 1 µM; in data set [4] it was 0.17 µM; in data set [5] it was 0.18 µM.
Consider `CC1(C)c2cc(OCCN3CCOCC3)ccc2C(=O)c2c1oc1cc(C#Cc3cc(C(=O)NC4CC4)ccn3)ccc21`, for which the fold induction at 1 h, 1 µM in data set [1] worked out at 12. Moreover, the 50% inhibitory concentration (IC50) in data set [2] is 0.0013 µM; in data set [3], over 1 µM; in data set [4], 0.18 µM; in data set [5], 0.03 µM.
The corresponding values for `CC1(C)NC(=O)N(CCOc2ccc3c(c2)C(C)(C)c2oc4cc(C#Cc5cc(OCC6CC6)ccn5)ccc4c2C3=O)C1=O` are 1.9, 0.013 µM, over 1 µM, 0.14 µM and 0.15 µM.
Turning to `CC1(C)c2cc(N3CCNC(=O)C3)ccc2C(=O)c2c1oc1cc(C#Cc3cc(OCC4CC4)ccn3)ccc21`, the fold induction at 1 h, 1 µM in data set [1] came out at 4.2. Further, the half-inhibitory concentration (IC50) was 0.0014 µM in data set [2], 0.29 µM in data set [3], 0.05 µM in data set [4] and 0.016 µM in data set [5].
The corresponding values for `CC1(C)c2cc(OCCN3CCOCC3)ccc2C(=O)c2c1oc1cc(C#Cc3cc(OCCC4CC4)ccn3)ccc21` are 6.4, 0.002 µM, 0.49 µM, 0.22 µM and 0.53 µM.
As for `CC1(C)c2cc(OCCN3CCOCC3)ccc2C(=O)c2c1oc1cc(C#Cc3cc(OCC4CCC4)ccn3)ccc21`, the fold induction at 1 h, 1 µM in data set [1] turned out to be 3.1. The 50% inhibitory concentration (IC50) turned out to be 0.0027 µM in data set [2], 0.171 µM in data set [3], 0.053 µM in data set [4] and 0.21 µM in data set [5].
`CC1(COc2ccnc(C#Cc3ccc4c5c(oc4c3)C(C)(C)c3cc(OCCN4CCOCC4)ccc3C5=O)c2)CC1`: in data set [1], the fold induction at 1 h, 1 µM came out at 6.1. In addition, the IC50 in data set [2] was 0.002 µM; in data set [3], 0.42 µM; in data set [4], 0.16 µM; in data set [5], 0.073 µM.
Consider `CC1(C)c2cc(OCCN3CC4(COC4)C3)ccc2C(=O)c2c1oc1cc(C#Cc3cc(OCC4CC4)ccn3)ccc21`, for which, in data set [1], the fold induction at 1 h, 1 µM stood at 1.4. The IC50 stood at 0.004 µM in data set [2], 0.5 µM in data set [3], 0.022 µM in data set [4] and 0.046 µM in data set [5].
The corresponding values for `CC(C)(C)NC(=O)c1cc(Cl)nc(C#Cc2ccc3c4c(oc3c2)C(C)(C)c2cc(NS(C)(=O)=O)ccc2C4=O)c1` are 3, 0.0022 µM, over 1 µM, 0.18 µM and 0.048 µM.
For `CC1(C)c2cc(N3CCOCC3)ccc2C(=O)c2c1oc1cc(C#Cc3cc(OCC4CC4)ccn3)ccc21` the same measures were 5.4, 0.0034 µM, 0.69 µM, 0.19 µM and 0.053 µM.
Regarding `CC1(C)c2cc(NS(C)(=O)=O)ccc2C(=O)c2c1oc1cc(C#Cc3cc(OCC4CC4)ccn3)ccc21`, in data set [1], the fold induction at 1 h, 1 µM turned out to be 1.2. Further, the concentration for half-maximal inhibition (IC50) in data set [2] was 0.0039 µM; in data set [3] it was over 1 µM; in data set [4], 0.223 µM; in data set [5], 0.075 µM.
Regarding `CC1(C)c2cc(OCCN3CCNC(=O)C3)ccc2C(=O)c2c1oc1cc(C#Cc3cc(OCC4CC4)ccn3)ccc21`, in data set [1], the fold induction at 1 h, 1 µM stood at 5.2. For the same compound, the IC50 in data set [2] was 0.0021 µM; in data set [3], 0.413 µM; in data set [4] it was 0.068 µM; in data set [5], 0.019 µM.
`CC1(C)c2cc(NS(C)(=O)=O)ccc2C(=O)c2c1oc1cc(C#Cc3cc(C(=O)NC4CC4)ccn3)ccc21`: the fold induction at 1 h, 1 µM in data set [1] was found to be 2.8. Also, the concentration for half-maximal inhibition (IC50) is 0.0024 µM in data set [2], over 1 µM in data set [3], 0.145 µM in data set [4] and 0.083 µM in data set [5].
For the compound `COCCOc1ccnc(C#Cc2ccc3c4c(oc3c2)C(C)(C)c2cc(OCCN3CCOCC3)ccc2C4=O)c1`, the fold induction at 1 h, 1 µM in data set [1] came out at 6.3. The IC50 in data set [2] was 0.015 µM; in data set [3] it was over 1 µM; in data set [4], 0.82 µM; in data set [5] it was 0.13 µM.
Regarding `Cc1c(C(=O)NC(C)(C)C)ccnc1C#Cc1ccc2c3c(oc2c1)C(C)(C)c1cc(NS(C)(=O)=O)ccc1C3=O`, the fold induction at 1 h, 1 µM in data set [1] turned out to be 4.1. Besides, the IC50 in data set [2] is 0.0038 µM; in data set [3] it was over 1 µM; in data set [4] it was 0.3 µM; in data set [5], 0.045 µM.
`CC1(C)c2cc(OCCN3CCOCC3)ccc2C(=O)c2c1oc1cc(C#Cc3cncc(OCC4CC4)c3)ccc21` showed an IC50 in data set [2] of 0.16 µM.
For the compound `CC1(C)c2cc(NS(C)(=O)=O)ccc2C(=O)c2c1oc1cc(C#Cc3cc(OCC(F)(F)F)ccn3)ccc21`, the fold induction at 1 h, 1 µM in data set [1] was determined as 3.4. In addition, the 50% inhibitory concentration (IC50) is 0.0022 µM in data set [2], 0.997 µM in data set [3], 0.159 µM in data set [4] and 0.067 µM in data set [5].

As a reminder, the IC50 is the midpoint of a concentration-inhibition curve.
